# From patent US10669250B2, “Hypervalent iodine CF2CF2X reagents and their use” (ETH Zurich, priority 2014, dated 2020)
# Counter-ions that a name gives are not always drawn.
# Assay: Storage stability of reagent 7 and its Boc and salt forms
# Type: physicochemical
# Text: The synthesis of reagent 7-salt is described in Scheme 1. The phenolic oxygen of Boc-protected NMT (N-methyltyramine) was deprotonated with NaH and treated with BrCF2CF2Br (Halon 2402) giving the bromide 4, which was converted to corresponding fluoroalkylsilane 5. […] For that reason, it was generated in situ from 7-salt by addition of base in all subsequent syntheses.
smiles,measurement,setting,value
"CNCCc1ccc(OC(F)(F)C(F)(F)I2OC(C)(C)c3ccccc32)cc1 [Reagent 7, 2-(4-(2-(3,3-Dimethyl-1λ^3-benzo[d][1,2]iodaoxol-1 (3H)-yl)-1,1,2,2-tetrafluoroethoxy)phenyl)-N-methylethan-1-amine]",storage stability,"isolated deprotected reagent, stored in a freezer",decomposed rapidly
"CN(CCc1ccc(OC(F)(F)C(F)(F)I2OC(C)(C)c3ccccc32)cc1)C(=O)OC(C)(C)C [Reagent 7-Boc, tert-Butyl (4-(2-(3,3-dimethyl-1λ^3-benzo[d][1,2]iodaoxol-1 (3H)-yl)-1,1,2,2-tetrafluoroethoxy)phenethyl)-(methyl)carbamate]",storage stability,"brown oil, at −20° C.",stable for at least for six months
"CNCCc1ccc(OC(F)(F)C(F)(F)I2OC(C)(C)c3ccccc32)cc1 [Reagent 7-salt, 3,3-Dimethyl-1-(1,1,2,2-tetrafluoro-2-(4-(2-(methylammonio)ethyl)phenoxy)ethyl)-2,3-dihydro-1H-1λ^3-benzo[d][1,2]iodaoxol-2-ium bis(trifluoroacetate)]",storage stability,"crystalline, at room temperature",appeared stable
